In the NIST ThermoML archive (doi:10.1016/j.jct.2016.07.046):

Test: mn = molality of the nth substance listed, in mol/kg
Conditions: 87 kPa, Liquid, Vibrating tube method

N[C@@H](CO)C(=O)O [L-serine] + O
mass density [kg/m3]
Conditions	m1 = 0.0529	m1 = 0.1005	m1 = 0.1529	m1 = 0.2024	m1 = 0.2541	m1 = 0.3019	m1 = 0.3525	m1 = 0.4023	m1 = 0.4535	m1 = 0.5008
293.15 K	1000.59	1002.7	1005	1007.15	1009.38	1011.42	1013.56	1015.65	1017.77	1019.72
298.15 K	999.41	1001.5	1003.78	1005.92	1008.13	1010.15	1012.27	1014.34	1016.44	1018.37
303.15 K	997.99	1000.06	1002.33	1004.45	1006.64	1008.65	1010.76	1012.81	1014.9	1016.82
308.15 K	996.36	998.42	1000.67	1002.77	1004.94	1006.94	1009.04	1011.08	1013.16	1015.07
313.15 K	994.5	996.54	998.77	1000.85	1003.01	1004.99	1007.07	1009.11	1011.18	1013.07

CCn1cc[n+](C)c1.O=S(=O)([O-])O [1-ethyl-3-methylimidazolium hydrogen sulfate] + O
mass density [kg/m3]
Conditions	293.15 K	298.15 K	303.15 K	308.15 K	313.15 K
m1 = 0.05	1001.85	1000.62	999.15	997.45	995.6
m1 = 0.1	1005.19	1003.89	1002.36	1000.61	998.69
m1 = 0.15	1008.26	1006.91	1005.32	1003.53	1001.51

NCC(=O)O [2-aminoacetic acid] + O
mass density [kg/m3]
Conditions	m1 = 0.0547	m1 = 0.1057	m1 = 0.1546	m1 = 0.2061	m1 = 0.2531	m1 = 0.3046	m1 = 0.3538	m1 = 0.403	m1 = 0.452	m1 = 0.499
293.15 K	999.97	1001.59	1003.13	1004.74	1006.2	1007.78	1009.28	1010.77	1012.24	1013.64
298.15 K	998.8	1000.41	1001.94	1003.54	1004.99	1006.56	1008.06	1009.54	1011	1012.39
303.15 K	997.39	998.99	1000.51	1002.1	1003.53	1005.09	1006.57	1008.04	1009.48	1010.86
308.15 K	995.77	997.36	–	1000.45	1001.88	1003.42	1004.89	1006.35	1007.78	1009.14
313.15 K	993.92	995.5	997	–	999.99	1001.53	1002.98	1004.43	1005.86	1007.22
